The series in a line: gradient 5% acetonitrile 3 min, to 50% in 2 min, to 85% in 15 min, held 3 min, 100 µL/min. The note with it: column: Zorbax Extend-C18 2.1 x 50 mm; eluents: water / acetonitrile, 0.1% formic acid. Summed up:
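The mobile phases were water and acetonitrile, each with 0.1% formic acid, pumped at 100 μL/min through a Zorbax Extend-C18 column (2.1 × 50 mm, 1.8 μm). Pure standards were injected as mixtures of ~100 molecules and detected by a quadrupole time-of-flight mass spectrometer in positive and negative ionization mode. Retention time came from computationally picked adduct peaks, each inspected by hand.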
Molecule `Cc1nnc(CNC(=O)C(C)n2nnc3ccccc3c2=O)o1` (stereo not drawn) returned an RP-LC retention time of 577 s.
As to `CC(=O)Nc1onc(C)c1-c1ccc(C)c(S(=O)(=O)N(C)Cc2ccccc2)c1`, the RP-LC retention time was determined as 905 s.
In the case of `CC(C)CNC(=O)C1CCN(c2nc3ccsc3c(=O)n2Cc2ccc(F)cc2)CC1` it was 884 s; in that of `COc1ccc2c(c1)[C@]13CCCC[C@@H]1[C@H](C2)N(C)CC3`, 732 s.
The same measure for `CCN1CCN(C2CCN(C(=O)c3cccc(Br)c3)CC2)C1=O`: 720 s.
In the case of `COc1ccc(C2(C(=O)N[C@@H]3CN(S(C)(=O)=O)C[C@H]3CN(C)C)CC2)cc1` it was 635 s; in that of `O=[N+]([O-])c1ccc(CNc2nc(NCc3cccc(C(F)(F)F)c3)nc3nc[nH]c23)cc1`, 790 s.
Take `COc1cc(NS(=O)(=O)c2cc(-c3cnn4c(C)cc(C)nc34)ccc2OC)cc(OC)c1`: the RP-LC retention time was found to be 949 s.
In turn, `Cc1ccc(Cl)cc1N1CCN(C(=O)c2ccc3c(c2)NC(=O)C2CCCCN32)CC1` (stereo not drawn) registered an RP-LC retention time of 1080 s.
In the case of `Cc1cc(N2CCN(C(=O)C3CCCCC3)CC2)nc(N2CCCC2)n1` it was 672 s; in that of `CCc1nc(-c2csc(S(=O)(=O)N3CCCC(C(=O)NC4CCC(C)CC4)C3)c2)no1` (stereo not drawn), 1100 s.
In the case of `O=C(NC1CCCc2ccccc21)C1CCCN(c2ccnc(-c3ccc(F)cc3)n2)C1` (stereo not drawn) it was 734 s; in that of `Cc1cc(C)cc(C(=O)N2CCc3nc[nH]c3C2)c1`, 584 s.
The same measure for `Cc1cccc(NC(=O)C2C(=O)N(C)C3(C)CC2c2ccccc2O3)c1` (stereo not drawn): 995 s.
Molecule `CN(C)C(=O)c1cn(C2CN(C(=O)Nc3ccccc3F)C2)nn1` gave an RP-LC retention time of 629 s.
In the case of `COc1ccc(-c2nnc(N3CCC(C(=O)NCc4ccco4)CC3)o2)cc1` it was 738 s; in that of `O=S(=O)(c1ccc(-c2nnc(C3CC3)o2)o1)N1CCN(c2ccc(F)cc2)CC1`, 981 s; in that of `Cc1ccccc1NC(=O)c1cccn1Cc1noc(C2CC2)n1`, 880 s.
`Cc1ccc(C)c(CS(=O)(=O)NCCc2cn(CC(C)C)c3ncccc23)c1` came in with an RP-LC retention time of 1070 s.
In the case of `CCCC(C)C(=O)NC1CCN(C2=NS(=O)(=O)C(c3ccc(CC)cc3)=C2C)CC1` (stereo not drawn) it was 927 s.
In the case of `Cc1ccc(C)c(C(=O)N2CCN(c3cc(-c4cccs4)[nH]n3)CC2)c1` it was 847 s.
`Cc1ccc(-c2cc(C(=O)N3CCN(C4CCN(C)CC4)CC3)n(C)c2)cc1` registered an RP-LC retention time of 590 s.
Turning to `CCCn1ccc2sc(C)c(C(=O)NCc3ccc(F)cc3F)c2c1=O`, the RP-LC retention time turned out to be 925 s.
In the case of `CCN1C(=O)C(CC(=O)NCCCN(C)C)Sc2ncccc21` (stereo not drawn) it was 559 s; in that of `O=C(C1CCN(S(=O)(=O)c2cc(-c3noc(C4CC4)n3)cs2)CC1)N1CCOCC1`, 793 s; in that of `CCCNC(=O)C1CCCN(c2ccc(SCC(=O)NCc3ccc(C)cc3)nn2)C1` (stereo not drawn), 656 s.
In the case of `CCc1cccc(NC(=O)C2CCN(S(=O)(=O)c3cc(-c4noc(C5CC5)n4)cs3)CC2)c1` it was 1110 s.
In the case of `Cc1sc(-c2cc(C(F)(F)F)on2)cc1S(=O)(=O)Nc1ccc2c(c1)OCCO2` it was 1070 s; in that of `N#Cc1ccc(C(=O)N2CCOCCNC(=O)[C@@H]3CCC[C@@H]32)cc1`, 659 s.
The molecule `C=Cc1ccc(COC(=O)C2=CN(CC)S(=O)(=O)N=C2C)cc1` came in with an RP-LC retention time of 1030 s.
In the case of `CC1CCC(NC(=O)C2CCCN(C(=O)c3cc(-c4cccnc4)n[nH]3)C2)CC1` (stereo not drawn) it was 636 s.
`COc1ccc(NC2=NS(=O)(=O)C(c3ccccc3)=C2C)c(OC)c1` showed an RP-LC retention time of 910 s.
In the case of `Cc1cccc(C)c1NC(=O)CN1C(=O)NC2(CCCCC2)C1=O` it was 745 s; in that of `CCOc1ccc(N2CC(c3nc(-c4cccc(OC)c4OC)no3)CC2=O)cc1` (stereo not drawn), 922 s; in that of `CS(=O)(=O)c1ccc(Nc2nc(C(=O)Nc3ccc(F)c(Cl)c3)cs2)cc1`, 843 s.
In the case of `CCOCCCNC(=O)CCCn1c2ccccc2c2cnn(C)c(=O)c21` it was 728 s; in that of `C[C@@H]1CCN(C(=O)C(CCCN=C(N)N)NS(=O)(=O)c2cccc3c2NC[C@H](C)C3)C(C(=O)O)C1` (stereo partly drawn), 767 s; in that of `CCn1cc(-c2ccc(Cl)cc2)cc1C(=O)NCCCN(C)C`, 694 s.
In the case of `CCn1cnc(S(=O)(=O)N2CCCC(C(=O)N3CCN(c4ncccn4)CC3)C2)c1` (stereo not drawn) it was 657 s; in that of `COc1ccc(CC2c3cc(OC)c(OC)cc3CC[N+]2(C)C)cc1OC` (stereo not drawn), 693 s; in that of `CCS(=O)(=O)N1CCCc2cc(C(=O)Nc3cccc(Br)c3)ccc21`, 1040 s.
For `O=C(Cc1cccc(F)c1)NC1(c2nc(-c3ccsc3)no2)CCCCC1`, the RP-LC retention time was 589 s.
In the case of `COCc1cc(=O)n(CC(=O)Nc2ccccc2)c(N2CCOCC2)n1` it was 767 s; in that of `Cc1ccc(N2C=C(C(=O)N3CCOCC3)S(=O)(=O)c3ccc(Cl)cc32)cc1F`, 886 s.
In the case of `CCNC(=O)c1nn(-c2ccc(F)cc2)c(OC)cc1=O` it was 645 s; in that of `Brc1ccc(-c2nc(NCCC3=CCCCC3)c3ccccc3n2)cc1`, 1010 s.
The same measure for `Cc1ccc(CN2C[C@@H]3C(=O)N(CCCN4CCCC4=O)C(=O)[C@@H]3C2)cc1`: 589 s.
Consider `CCCCOc1ccc(-c2cc3c4nnc(CCC(=O)N5CCN(CC)CC5)n4ccn3n2)cc1`, for which the RP-LC retention time is 680 s.
The same measure for `COc1ccc(-c2nc(Cc3noc(-c4cccc(OC)c4)n3)c(C)o2)cc1`: 1030 s; for `Cc1ccc(-c2cnc(N3CCCC(C(=O)NCc4ccc5c(c4)OCO5)C3)nc2)cc1` (stereo not drawn): 1060 s.
As for `O=C(NCCS(=O)(=O)N1CCN(c2ncccn2)CC1)c1cc2ccccc2o1`, the RP-LC retention time stood at 727 s.
In the case of `Cc1ccc(-c2ccc3nn(CC(=O)NC4CCCCC4)c(=O)n3n2)cc1C` it was 792 s.
Take `O=C(NCc1ccco1)c1ccc(Nc2c(-c3ccccc3)nc3cnccn23)cc1`: the RP-LC retention time is 733 s.
The same measure for `CCCn1c(=O)sc2cc(S(=O)(=O)N3CCC(C(=O)N(C)Cc4ccco4)CC3)ccc21`: 901 s.
In the case of `Cc1ccc(-c2cc3n(n2)CCCN(C(=O)c2cccc(C#N)c2)C3)cc1` it was 862 s; in that of `COc1ccc(-c2ncc3c(n2)CCN(C(=O)c2ccccc2Br)C3)cc1`, 948 s; in that of `CCC1CCCCN1C(=O)c1cnc2nc(C)ccc2c1Nc1ccc2c(c1)OCCO2` (stereo not drawn), 666 s.
In the case of `CC1CCCCN1C(=O)Cn1c(=O)n(C2CCCCC2)c(=O)c2ccccc21` (stereo not drawn) it was 1010 s.
